Assay results: ChEMBL document CHEMBL1909046, “DrugMatrix in vitro pharmacology data”

Experiments:
Cytochrome P450 2E1 = Cytochrome P450 2E1 (Homo sapiens, UniProt P05181); details: bti-tn-5b1-4; further: in other assays of this panel Not Active means under 50% inhibition at 10 µM
[1] = DRUGMATRIX: Purinergic P2X radioligand binding (ligand: [3H] alpha, beta-Methylene-ATP); assay type: cell membranes, Oryctolagus cuniculus, New Zealand albino, Urinary bladder, Membrane; details: Not Active = under 50% inhibition at 10 µM
[2] = molecular target: 5-hydroxytryptamine receptor 2B (Homo sapiens, UniProt P41595); assay type: cell membranes, CHO-K1, Membrane; further: in other assays of this panel Not Active means under 50% inhibition at 10 µM
Sequence of 5-hydroxytryptamine receptor 2B (P41595 whole entry): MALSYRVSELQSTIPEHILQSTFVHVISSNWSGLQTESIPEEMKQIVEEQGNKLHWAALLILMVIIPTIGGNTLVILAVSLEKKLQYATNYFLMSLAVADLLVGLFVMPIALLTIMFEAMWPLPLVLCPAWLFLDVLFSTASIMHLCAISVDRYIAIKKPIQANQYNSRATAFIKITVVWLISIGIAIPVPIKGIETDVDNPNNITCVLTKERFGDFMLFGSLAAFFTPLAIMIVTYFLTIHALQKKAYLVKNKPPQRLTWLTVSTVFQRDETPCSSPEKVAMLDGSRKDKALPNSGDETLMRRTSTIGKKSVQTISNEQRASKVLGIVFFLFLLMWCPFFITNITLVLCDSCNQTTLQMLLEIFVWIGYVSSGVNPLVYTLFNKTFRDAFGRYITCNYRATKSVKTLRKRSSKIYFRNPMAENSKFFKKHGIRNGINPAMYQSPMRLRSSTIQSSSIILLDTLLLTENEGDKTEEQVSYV

[3] = molecular target: Beta-3 adrenergic receptor (Homo sapiens, UniProt P13945); test: DRUGMATRIX: Adrenergic beta3 radioligand binding (ligand: [125I] Cyanopindolol); assay type: cell membranes, HEK293, Membrane; details: hek293; Not Active = under 50% inhibition at 10 µM
Sequence of Beta-3 adrenergic receptor (P13945 whole entry): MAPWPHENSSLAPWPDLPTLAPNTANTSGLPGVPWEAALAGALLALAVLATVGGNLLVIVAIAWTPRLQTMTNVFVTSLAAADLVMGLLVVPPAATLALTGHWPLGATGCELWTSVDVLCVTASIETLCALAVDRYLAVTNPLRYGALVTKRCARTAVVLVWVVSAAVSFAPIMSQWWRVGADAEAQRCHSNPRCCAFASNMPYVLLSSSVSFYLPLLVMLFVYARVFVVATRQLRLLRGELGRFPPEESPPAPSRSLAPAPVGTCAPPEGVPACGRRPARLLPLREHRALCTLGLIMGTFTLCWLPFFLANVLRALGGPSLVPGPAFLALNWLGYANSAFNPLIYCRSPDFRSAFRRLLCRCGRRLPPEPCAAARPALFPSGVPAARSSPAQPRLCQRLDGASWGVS

Endothelin-1 receptor = molecular target: T1, Endothelin-1 receptor (Homo sapiens, UniProt P25101); assay type: cell membranes, CHO-K1, Membrane; details: cho-k1; further: in other assays of this panel Not Active means under 50% inhibition at 10 µM
T1 sequence (P25101 whole entry): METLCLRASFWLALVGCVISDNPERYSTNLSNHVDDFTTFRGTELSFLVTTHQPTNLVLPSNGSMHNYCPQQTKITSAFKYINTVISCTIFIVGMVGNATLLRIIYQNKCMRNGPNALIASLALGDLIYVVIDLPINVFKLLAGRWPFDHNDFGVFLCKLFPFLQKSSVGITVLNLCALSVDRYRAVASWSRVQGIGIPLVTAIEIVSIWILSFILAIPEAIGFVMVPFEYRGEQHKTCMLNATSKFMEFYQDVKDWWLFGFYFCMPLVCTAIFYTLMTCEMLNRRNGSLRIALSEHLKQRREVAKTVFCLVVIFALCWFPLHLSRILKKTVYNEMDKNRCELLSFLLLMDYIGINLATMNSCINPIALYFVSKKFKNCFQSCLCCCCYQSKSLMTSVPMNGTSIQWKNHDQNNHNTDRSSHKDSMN

[4] = DRUGMATRIX: Glutamate, Kainate radioligand binding (ligand: [3H] Kainic acid); assay type: cell membranes, Rattus norvegicus, Wistar, Brain, Membrane; details: Not Active = under 50% inhibition at 10 µM
[5] = molecular target: Platelet-activating factor receptor (Homo sapiens, UniProt P25105); test: biochemical; assay type: tissue-based; details: platelet; further: in other assays of this panel Not Active means under 50% inhibition at 10 µM
Sequence of Platelet-activating factor receptor (P25105 whole entry): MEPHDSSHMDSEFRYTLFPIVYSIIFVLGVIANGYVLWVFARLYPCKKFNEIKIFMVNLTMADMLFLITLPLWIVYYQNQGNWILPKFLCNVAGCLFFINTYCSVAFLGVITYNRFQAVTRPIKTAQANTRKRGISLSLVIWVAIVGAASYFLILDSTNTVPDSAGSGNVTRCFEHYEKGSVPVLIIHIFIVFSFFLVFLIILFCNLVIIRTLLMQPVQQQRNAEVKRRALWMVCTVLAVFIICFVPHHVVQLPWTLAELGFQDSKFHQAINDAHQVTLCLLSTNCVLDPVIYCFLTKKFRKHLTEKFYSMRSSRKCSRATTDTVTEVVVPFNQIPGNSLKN

Sequence of Cytochrome P450 2E1 (P05181 whole entry): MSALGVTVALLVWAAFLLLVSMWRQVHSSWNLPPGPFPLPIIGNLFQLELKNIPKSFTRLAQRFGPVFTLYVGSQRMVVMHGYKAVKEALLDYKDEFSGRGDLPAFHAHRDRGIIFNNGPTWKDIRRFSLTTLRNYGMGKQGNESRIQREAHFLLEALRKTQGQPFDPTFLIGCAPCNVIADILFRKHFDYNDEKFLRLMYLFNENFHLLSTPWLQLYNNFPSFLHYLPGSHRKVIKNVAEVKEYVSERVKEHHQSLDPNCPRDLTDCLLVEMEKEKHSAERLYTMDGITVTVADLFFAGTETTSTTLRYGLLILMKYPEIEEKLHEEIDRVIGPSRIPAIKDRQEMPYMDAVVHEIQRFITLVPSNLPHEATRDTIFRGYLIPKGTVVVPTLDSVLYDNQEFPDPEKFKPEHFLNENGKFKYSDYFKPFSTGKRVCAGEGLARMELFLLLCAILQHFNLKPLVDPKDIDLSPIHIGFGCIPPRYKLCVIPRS

SMILES | IC50 (Cytochrome P450 2E1) | Ki (Cytochrome P450 2E1) | IC50 [1] | Ki [1] | IC50 ([2]; cho-k1) | IC50 [3] | IC50 (Endothelin-1 receptor) | IC50 [4] | Ki [4] | IC50 [5] | Ki ([2]; cho-k1) | IC50 ([2]; read-out: IC50) [nM] | Ki ([2]; read-out: Ki) [nM]
CC(C(=O)O)c1ccc(-c2ccccc2)c(F)c1 (stereo unspecified) [FLURBIPROFEN] | Not Active | Not Active | Not Active | Not Active | Not Active | Not Active | Not Active | Not Active | Not Active | Not Active |  |  | 
NC[C@@H]1O[C@H](O[C@H]2[C@@H](O)[C@H](O[C@@H]3[C@@H](O)[C@H](N)C[C@H](N)[C@H]3O[C@H]3O[C@H](CN)[C@@H](O)[C@H](O)[C@H]3N)O[C@@H]2CO)[C@H](N)[C@@H](O)[C@@H]1O [FRAMYCETIN] | Not Active | Not Active | Not Active | Not Active |  | Not Active | Not Active | Not Active | Not Active | Not Active | Not Active |  | 
C[C@H]([C@](O)(Cn1cncn1)c1ccc(F)cc1F)S(C)(=O)=O [GENACONAZOLE] | Not Active | Not Active | Not Active | Not Active | Not Active | Not Active | Not Active | Not Active | Not Active | Not Active |  |  | 
Cc1c(F)c(N2CCNC(C)C2)cc2c1c(=O)c(C(=O)O)cn2C1CC1 (stereo unspecified) [GREPAFLOXACIN] | Not Active | Not Active | Not Active | Not Active | Not Active | Not Active | Not Active | Not Active | Not Active | Not Active |  |  | 
N=C(N)N/N=C/c1c(Cl)cccc1Cl [GUANABENZ] | Not Active | Not Active | Not Active | Not Active |  | Not Active | Not Active | Not Active | Not Active | Not Active |  | 97 | 62
C[C@]12CCC(=O)C=C1CC[C@@H]1[C@@H]2[C@@H](O)C[C@@]2(C)[C@H]1CC[C@]2(O)C(=O)CO [HYDROCORTISONE] | Not Active | Not Active | Not Active | Not Active | Not Active | Not Active | Not Active | Not Active | Not Active | Not Active |  |  | 
NC[C@H]1O[C@H](O[C@H]2[C@H](O)[C@@H](O[C@H]3O[C@H](CO)[C@@H](O)[C@H](N)[C@H]3O)[C@H](N)C[C@@H]2N)[C@H](O)[C@@H](O)[C@@H]1O [KANAMYCIN] | Not Active | Not Active | Not Active | Not Active | Not Active | Not Active | Not Active | Not Active | Not Active | Not Active |  |  | 
CC[C@H](C)C(=O)O[C@H]1C[C@@H](C)C=C2C=C[C@H](C)[C@H](CC[C@@H]3C[C@@H](O)CC(=O)O3)[C@H]21 [LOVASTATIN] | Not Active | Not Active | Not Active | Not Active | Not Active | Not Active | Not Active | Not Active | Not Active | Not Active |  |  | 
CC(C(=O)O)c1ccc(CC2CCCC2=O)cc1 (stereo unspecified) [LOXOPROFEN] | Not Active | Not Active | Not Active | Not Active | Not Active | Not Active | Not Active | Not Active | Not Active | Not Active |  |  | 
Cc1cccc(Nc2ccccc2C(=O)O)c1C [MEFENAMIC ACID] | Not Active | Not Active | Not Active | Not Active | Not Active | Not Active | Not Active | Not Active | Not Active | Not Active |  |  | 
CC(=O)O[C@]1(C(C)=O)CC[C@H]2[C@@H]3C=C(C)C4=CC(=O)CC[C@]4(C)[C@H]3CC[C@@]21C [MEGESTROL ACETATE] | Not Active | Not Active | Not Active | Not Active | Not Active | Not Active | Not Active | Not Active | Not Active | Not Active |  |  | 
COc1ccccc1OCC(O)COC(N)=O (stereo unspecified) [METHOCARBAMOL] | Not Active | Not Active | Not Active | Not Active | Not Active | Not Active | Not Active | Not Active | Not Active | Not Active |  |  | 
CN(Cc1cnc2nc(N)nc(N)c2n1)c1ccc(C(=O)N[C@@H](CCC(=O)O)C(=O)O)cc1 [METHOTREXATE] | Not Active | Not Active | Not Active | Not Active | Not Active | Not Active | Not Active | Not Active | Not Active | Not Active |  |  | 
COC(=O)c1ccccc1O [METHYL SALICYLATE] | Not Active | Not Active | Not Active | Not Active | Not Active | Not Active | Not Active | Not Active | Not Active | Not Active |  |  | 
COc1ccc2cc(CCC(C)=O)ccc2c1 [NABUMETONE] | Not Active | Not Active | Not Active | Not Active | Not Active | Not Active | Not Active | Not Active | Not Active | Not Active |  |  | 
O=C(O)c1cccnc1 [NIACIN] | Not Active | Not Active | Not Active | Not Active | Not Active | Not Active | Not Active | Not Active | Not Active | Not Active |  |  | 
CNC(=C[N+](=O)[O-])NCCSCc1csc(CN(C)C)n1 [NIZATIDINE] | Not Active | Not Active | Not Active | Not Active | Not Active | Not Active | Not Active | Not Active | Not Active | Not Active |  |  | 
C[C@]12C/C(=C/O)C(=O)C[C@@H]1CC[C@@H]1[C@@H]2CC[C@@]2(C)[C@H]1CC[C@]2(C)O [OXYMETHOLONE] | Not Active | Not Active | Not Active | Not Active | Not Active | Not Active | Not Active | Not Active | Not Active | Not Active |  |  | 
CC(C)(CO)C(O)C(=O)NCCCO (stereo unspecified) [PANTHENOL] | Not Active | Not Active | Not Active | Not Active | Not Active | Not Active | Not Active | Not Active | Not Active | Not Active |  |  | 
COc1ccc(Cc2nccc3cc(OC)c(OC)cc23)cc1OC [PAPAVERINE] | Not Active | Not Active | Not Active | Not Active | Not Active | Not Active | Not Active | Not Active | Not Active | Not Active |  |  | 
OCCN1CCN(CCCN2c3ccccc3Sc3ccc(Cl)cc32)CC1 [PERPHENAZINE] | Not Active | Not Active | Not Active | Not Active | Not Active | Not Active | Not Active | Not Active | Not Active | Not Active |  |  | 
CCCCC1C(=O)N(c2ccccc2)N(c2ccccc2)C1=O [PHENYLBUTAZONE] | Not Active | Not Active | Not Active | Not Active | Not Active | Not Active | Not Active | Not Active | Not Active | Not Active |  |  | 
Cc1cccc(Nc2cc(Cl)nc(SCC(=O)O)n2)c1C [PIRINIXIC ACID] | Not Active | Not Active | Not Active | Not Active | Not Active | Not Active | Not Active | Not Active | Not Active | Not Active |  |  | 
CC[C@H](C)C(=O)O[C@H]1C[C@H](O)C=C2C=C[C@H](C)[C@H](CC[C@@H](O)C[C@@H](O)CC(=O)O)[C@H]21 [PRAVASTATIN] | Not Active | Not Active | Not Active | Not Active | Not Active | Not Active | Not Active | Not Active | Not Active | Not Active |  |  | 
CC(C)(Sc1cc(C(C)(C)C)c(O)c(C(C)(C)C)c1)Sc1cc(C(C)(C)C)c(O)c(C(C)(C)C)c1 [PROBUCOL] | Not Active | Not Active | Not Active | Not Active | Not Active | Not Active | Not Active | Not Active | Not Active | Not Active |  |  | 
